“And” between values parts separate entries of the source, which are not always exact repeats. Identical values can stand only once. Like-named read-outs stand apart in the source and are kept apart here.

Here are results for 1 sequence from patent US7550438B2, “Methods for production of growth-promoting proteins and peptides for kidney epithelial cells” (The University of Chicago, priority 1997, dated 2009).

Assay [1] relates to monkey kidney epithelial cells of the BSC-1 line. Put plainly: Growth-promoting (mitogenic) activity: number of cells in BSC-1 cultures counted four days after addition. The class given is cell-based, African green monkey. The note with it: for EC50: read-out: Growth-Stimulation K½; for stimulation of growth (increase in cell number compared to control at four days): agent alone at maximal mitogenic concentration (14-Ser 0.5 μg/ml; EGF, IGF-I 50 ng/ml; acidic FGF 100 pg/ml; basic FGF 1,000 pg/ml; vasopressin 75 pg/ml; K 10.4 mM; Na 180 mM).

Another assay concerns BSC-1 cells. Put plainly: Time of contact with cells required to commit them to accelerated growth (washout, count at four days). The class given is cell-based, African green monkey. How it is done:
Confluent monolayers of BSC-1 cells are prepared as herein and exposed to the 14-Ser peptide (0.5 μg/ml) for different amounts of time (0 to 30 minutes). At the end of the defined exposure period, culture medium containing the mitogen was aspirated, the monolayer was rinsed to remove non-adherent peptide, and fresh medium was added. Four days later the number of cells in the culture was counted.
In these experiments a solution containing the peptide of interest was added to the cell monolayer; culture medium was then aspirated at a specified time thereafter. Then fresh medium without the peptide was added and the number of cells was counted four days later.

For assay [2], the system named is rats with mercuric chloride-induced acute renal failure. Put plainly: Mercuric chloride-induced acute renal failure in rats: survival and renal function. The class given is in vivo, rat. The note with it: for survival 7 days later: single dose s.c. 1 hour after mercuric chloride. The text has this:
Nephrotoxic and ischemic acute renal failure (ARF) induced experimentally in rats have long been used to model this syndrome in humans. […] Male rats weighed 200-225 gm at the start of the experiment. This dose was used because preliminary experiments indicated it results in survival of 25-50% of the animals 7 days later. […] An increase in serum creatinine concentration signals a decline in renal function because the injured kidney is unable to excrete endogenous creatinine in the urine so it accumulates in the blood.
The synthetic peptide […] (14-Ser) (SEQ ID NO: 15) (dissolved in sterile 0.01% bovine serum albumin in phosphate-buffered saline) was injected subcutaneously into rats to determine its effect on survival, recovery of renal fucntion, and stimulation of DNA synthesis. Multiple different peptides were studied including 14-Ser, […] (14-mer) (SEQ ID NO: 39), […] (16-mer) (SEQ ID NO: 4) […] (11-mer) (SEQ ID NO: 6), and […] (11-mer) (SEQ ID NO: 41). Different concentrations and times of administration were tested and compared.
Acute tubular necrosis was induced in 44 rats by the subcutaneous (s.c.) injection of mercuric chloride, and a single dose of 14-ser was administered s.c. 1 hour afterwards. Different amounts of the peptide were given to assesses its capacity to affect the outcome. Survival 7 days later was about twice as high in animals given 100-150 μg of peptide (63%) than in rats given 0-75 μg peptide (29%).
To determine the effect of the peptide on survival and recovery of renal function, acute tubular necrosis was induced in 59 rats; 29 received 14-Ser (100 μg/rat) and 30 received an equal volume of the vehicle s.c. 1 hour after administration of mercuric chloride. Enhanced survival (top panel) and renal functional recovery (bottom panel) of rats give a WGF-derived peptide after mercuric chloride-induced acute tubular necrosis are shown in FIG. 2A and FIG. 2B. Mercuric chloride was injected subcutaneously into each of the 59 rats, and 1 hour later 100 μg of WGF peptide (14-Ser) (n=29 rats) or the vehicle […] was given. Survival was greater in rats given the peptide than in animals receiving the vehicle as early as day 3 after administration of mercuric chloride. Blood was obtained from the tail vein on the days indicated, and serum creatinine concentration was measured. […] On days 2, 3 and 4, the lower creatinine concentration in peptide-treated rats indicates accelerated recovery of kidney function.
Experimental ARF was induced in rats by subcutaneous injection of mercuric chloride. The synthetic peptide […] […] In one experiment a total of 17 rats were injected with a dose of mercuric chloride shown to induce ARF. The different amounts of the peptide (known to stimulate growth of kidney cells in culture) were injected into the animals to assess capacity to improve the outcome. […] In contrast, two of three rats given 100 micrograms of peptide were alive, as were five of six given 200 micrograms. In summary, none of eight rats (0%) given up to 50 micrograms of peptide survived, whereas seven of nine (78%) given 100-200 micrograms did. Thus, the 11-mer WGF peptide improves survival in nephrotoxic ARF.
[…] Four days later, 63% of rats given the 14-Ser peptide were alive compared to 25% of animals receiving the vehicle (chi squared, P-0.0499); 50% of rats receiving EGF were alive (chi squared, P=N.S.). On day 5, 50% of rats given EGF were alive, compared to 12.5% of animals given the vehicle (chi squared, P=0.0436). […] These observations indicate that the 14-Ser peptide and EGF given after renal injury are similar in their ability to improve survival from the ARF syndrome.

For assay [3] the test system is unchanged. The assay is described as above. The class given is in vivo, rat. The note with it: given 24 hours before mercuric chloride (EGF 20 μg, s.c.).

As to AQPYPQGNHEASYG, the EC50 in assay [1] (+ heparin (1 μg/ml)) came out at 40 nM; in assay [1] (+ keratan sulfate (2 μg/ml for 5 minutes prior to peptide, b158; 10 μg/ml)), 67 nM; in assay [1] (peptide alone, BSC-1 cells, 4 days in culture), 126 nM. In addition, the “stimulation of growth (increase in cell number compared to control at four days)” value in assay [1] is 25%; in assay [1] (listed as 14-Ser Peptide), 25-30%; in assay [1] (listed as 14-Ser peptide), 25-30% and 25%. For the same sequence, in the assay with BSC-1 cells (14-Ser 0.5 μg/ml), the “exposure time for half-maximal stimulation” value stood at 1 min. Also, the “maximal growth stimulation after 2 minutes exposure” value with BSC-1 cells (14-Ser 0.5 μg/ml, count at four days) is 29%. In the assay on BSC-1 cells (peptide then washed off, cells counted four days later), the “exposure time sufficient for maximal growth stimulation (commitment time)” value came to 2 min. Also, the “survival 7 days later” value in assay [2] (0-75 μg peptide) is on record as 29%; in assay [2] (100-150 μg of peptide), 63%. The “recovery of renal function on days 3 and 4” value in assay [2] (100 μg/rat s.c. 1 hour after mercuric chloride) is reported as “significantly more rapid recovery”. Further, the “serum creatinine concentration on day 2 compared to vehicle” value in assay [2] (100 μg/rat s.c. 1 hour after mercuric chloride, P=0.034) is “significantly lower”. In assay [2] (100 μg/rat s.c. 1 hour after mercuric chloride, basal 0.5, similar with vehicle), the “serum creatinine concentration on day 1” value stood at 2.3 mg/dL. Moreover, the “survival compared to vehicle 3 days after onset of ARF” value in assay [2] (100 μg/rat s.c. 1 hour after mercuric chloride, chi squared P=0.035) is recorded as “significantly greater”. Also, in assay [2] (100 μg/rat s.c. 1 hour after mercuric chloride, vehicle 20%), the “survival by day 7” value amounted to 48%. In addition, in assay [2] (14-Ser 100 μg 1 hour after, EGF 20 μg 2 hours after mercuric chloride, vehicle 12%), the “survival on day 6” value came to 37.5%. The “survival four days later” value in assay [2] (14-Ser 100 μg s.c. 1 hour after, EGF 20 μg s.c. 2 hours after mercuric chloride 2.25 mg/kg, vehicle 25%) amounted to 63%. For the same sequence, in assay [2] (given 24 hours before mercuric chloride, P=0.039), the “renal function (serum creatinine) on day 3 compared to vehicle” value was “significantly better”. Also, the “survival on day 4” value in assay [3] (listed as 14-Ser) is 71%; in assay [3] (listed as 14-Ser WGF-derived peptide), 73%.
